# From ChEMBL document CHEMBL5321233, “Biological activity of 1,2,3-triazole-2-amino-1,4-naphthoquinone derivatives and their evaluation as therapeutic strategy for malaria control” (Eur J Med Chem, 2023)
# Activity calls are given as the source filed them. No cut-off for these calls is given here.
# Key:
# [1] = Acute toxicity in Albino Swiss mouse assessed as aggressiveness at 300 mg/kg, po administered as single dose measured after 14 days; assay type: organism-based; details: in vivo, 336 h, time 14 day
# [2] = Acute toxicity in Albino Swiss mouse assessed as distribution of hemosiderophages in parenchyma of spleen at 300 mg/kg, po administered as single dose measured after 14 days by H and E staining based analysis; assay type: organism-based; details: in vivo, 336 h, time 14 day
# [3] = Toxicity in Albino Swiss mouse infected with Plasmodium berghei ANKA assessed as animal survival at 30 mg/kg, po administered for 4 consecutive days measured for 14 days relative to control; assay type: organism-based; details: in vivo, time 14 day
# Plasmodium falciparum [4] = experiment: Induction of morphological changes in chloroquine-resistant Plasmodium falciparum W2 at early trophozoite stage assessed as development-limiting of parasitophorous vacuole membrane by TEM analysis; assay type: functional, organism-based
# [5] = Acute toxicity in Albino Swiss mouse assessed as acidophilic cytoplasm with macro-vacuoles in liver at 300 mg/kg, po administered as single dose measured after 14 days by H and E staining based analysis; assay type: organism-based; details: in vivo, 336 h, time 14 day
# [6] = Acute toxicity in Albino Swiss mouse assessed as animal mortality at 300 mg/kg, po administered as single dose measured after 14 days; assay type: organism-based; details: in vivo, 336 h, time 14 day
# [7] = Acute toxicity in Albino Swiss mouse assessed as change in urine color at 300 mg/kg, po administered as single dose measured after 14 days; assay type: organism-based; details: in vivo, 336 h, time 14 day
# [8] = Octanol-water partition coefficient, logP of the compound; assay type: physicochemical
# [9] = Acute toxicity in Albino Swiss mouse assessed as change in relative weight of spleen at 300 mg/kg, po administered as single dose measured after 14 days; assay type: organism-based; details: in vivo, 336 h, time 14 day
# [10] = Acute toxicity in Albino Swiss mouse assessed as acidophilic cytoplasm with micro-steatosis in liver at 300 mg/kg, po administered as single dose measured after 14 days by H and E staining based analysis; assay type: organism-based; details: in vivo, 336 h, time 14 day
# [11] = Acute toxicity in Albino Swiss mouse assessed as necrosis of hepatocytes at 300 mg/kg, po administered as single dose measured after 14 days by H and E staining based analysis; assay type: organism-based; details: in vivo, 336 h, time 14 day
# [12] = Acute toxicity in Albino Swiss mouse assessed as change in defecation at 300 mg/kg, po administered as single dose measured after 14 days; assay type: organism-based; details: in vivo, 336 h, time 14 day
# [13] = Acute toxicity in Albino Swiss mouse assessed as mesangial cells reduction in kidney at 300 mg/kg, po administered as single dose measured after 14 days by H and E staining based analysis; assay type: organism-based; details: in vivo, 336 h, time 14 day
# [14] = Acute toxicity in Albino Swiss mouse assessed as recurrent tubules with loss of polarity in kidney at 300 mg/kg, po administered as single dose measured after 14 days by H and E staining based analysis; assay type: organism-based; details: in vivo, 336 h, time 14 day
# [15] = Acute toxicity in Albino Swiss mouse assessed as escape reaction at 300 mg/kg, po administered as single dose measured after 14 days; assay type: organism-based; details: in vivo, 336 h, time 14 day
# [16] = Acute toxicity in Albino Swiss mouse assessed as signs of pallor at 300 mg/kg, po administered as single dose measured after 14 days; assay type: organism-based; details: in vivo, 336 h, time 14 day
# [17] = Acute toxicity in Albino Swiss mouse assessed as congestion of globular center vein in liver at 300 mg/kg, po administered as single dose measured after 14 days by H and E staining based analysis; assay type: organism-based; details: in vivo, 336 h, time 14 day
# [18] = Acute toxicity in Albino Swiss mouse assessed as contortions at 300 mg/kg, po administered as single dose measured after 14 days; assay type: organism-based; details: in vivo, 336 h, time 14 day
# [19] = Acute toxicity in Albino Swiss mouse assessed as hyperplasia in spleen at 300 mg/kg, po administered as single dose measured after 14 days by H and E staining based analysis; assay type: organism-based; details: in vivo, 336 h, time 14 day
# HepG2 = experiment: Cytotoxicity against human HepG2 cells incubated for 24 hrs by MTT assay; assay type: functional
# [20] = Acute toxicity in Albino Swiss mouse assessed as signs of toxicity at 300 mg/kg, po administered as single dose measured after 14 days; assay type: organism-based; details: in vivo, 336 h, time 14 day
# [21] = Hemolytic activity in human red blood cells type A assessed as hemoglobin release at 500 to 1000 uM incubated for 60 mins by spectrophotometry; assay type: toxicity, cell-based, Erythrocyte; details: dose 500-1000 µM, read-out: Activity
# Plasmodium falciparum [22] = experiment: Induction of morphological changes in chloroquine-resistant Plasmodium falciparum W2 at early trophozoite stage assessed as rounded nucleus with degenerative changes by TEM analysis; assay type: functional, organism-based
# [23] = Acute toxicity in Albino Swiss mouse assessed as change in sensory function at 300 mg/kg, po administered as single dose measured after 14 days; assay type: organism-based; details: in vivo, 336 h, time 14 day
# [24] = Acute toxicity in Albino Swiss mouse assessed as change in relative weight of liver at 300 mg/kg, po administered as single dose measured after 14 days; assay type: organism-based; details: in vivo, 336 h, time 14 day
# [25] = Acute toxicity in Albino Swiss mouse assessed as signs of hyperemia at 300 mg/kg, po administered as single dose measured after 14 days; assay type: organism-based; details: in vivo, 336 h, time 14 day
# [26] = Acute toxicity in Albino Swiss mouse assessed as developmment-delimiting germinal center in spleen at 300 mg/kg, po administered as single dose measured after 14 days by H and E staining based analysis; assay type: organism-based; details: in vivo, 336 h, time 14 day
# Plasmodium berghei [27] = experiment: Antimalarial activity against Plasmodium berghei ANKA infected in Albino Swiss mouse assessed as reduction in parasitemia at 30 mg/kg, po administered for 4 consecutive days measured after day 7 relative to control; assay type: functional; set-up: scale not given: the % may be the effect or the level left; details: time 7 day
# [28] = Acute toxicity in Albino Swiss mouse assessed as podocytes with discrete thickening of basal membrane in kidney at 300 mg/kg, po administered as single dose measured after 14 days by H and E staining based analysis; assay type: organism-based; details: in vivo, 336 h, time 14 day
# [29] = Acute toxicity in Albino Swiss mouse assessed as change in diarrhea at 300 mg/kg, po administered as single dose measured after 14 days; assay type: organism-based; details: in vivo, 336 h, time 14 day
# [30] = Acute toxicity in Albino Swiss mouse assessed as activated macrophages in spleen at 300 mg/kg, po administered as single dose measured after 14 days by H and E staining based analysis; assay type: organism-based; details: in vivo, 336 h, time 14 day
# Plasmodium falciparum [31] = experiment: Induction of morphological changes in chloroquine-resistant Plasmodium falciparum W2 at early trophozoite stage assessed as degenerating organelles by TEM analysis; assay type: functional, organism-based
# [32] = Acute toxicity in Albino Swiss mouse assessed as granular degeneration in liver at 300 mg/kg, po administered as single dose measured after 14 days by H and E staining based analysis; assay type: organism-based; details: in vivo, 336 h, time 14 day
# Plasmodium falciparum [33] = experiment: Induction of morphological changes in chloroquine-resistant Plasmodium falciparum W2 at early trophozoite stage assessed as development-limiting of plasma membrane by TEM analysis; assay type: functional, organism-based
# [34] = Selectivity index, ratio of CC50 for African green monkey Vero cells to IC50 for chloroquine-resistant Plasmodium falciparum W2 infected in human erythrocytes; assay type: toxicity, cell-based; details: read-out: Ratio CC50/IC50
# [35] = Acute toxicity in Albino Swiss mouse assessed as atrophic glomerulus with congested capillaries in kidney at 300 mg/kg, po administered as single dose measured after 14 days by H and E staining based analysis; assay type: organism-based; details: in vivo, 336 h, time 14 day
# [36] = Acute toxicity in Albino Swiss mouse assessed as fusion of lymphoid follicles in spleen at 300 mg/kg, po administered as single dose measured after 14 days by H and E staining based analysis; assay type: organism-based; details: in vivo, 336 h, time 14 day
# [37] = Acute toxicity in Albino Swiss mouse assessed as change in relative weight of kidney at 300 mg/kg, po administered as single dose measured after 14 days; assay type: organism-based; details: in vivo, 336 h, time 14 day
# Plasmodium berghei [38] = experiment: Antimalarial activity against Plasmodium berghei ANKA infected in Albino Swiss mouse assessed as half-survival time at 30 mg/kg, po administered for 4 consecutive days measured for 30 days (reference value: 16 day); assay type: functional; details: time 30 day
# Plasmodium falciparum [39] = experiment: Antimalarial activity against chloroquine-resistant Plasmodium falciparum W2 infected in human erythrocytes assessed as parasite growth inhibition incubated for 48 hrs by geimsa staining based microscopy; assay type: functional, organism-based; details: W2, Erythrocyte
# [40] = Acute toxicity in Albino Swiss mouse assessed as behavioural toxicity at 300 mg/kg, po administered as single dose measured after 14 days; assay type: organism-based; details: in vivo, 336 h, time 14 day
# [41] = Acute toxicity in Albino Swiss mouse assessed as change in motor function at 300 mg/kg, po administered as single dose measured after 14 days; assay type: organism-based; details: in vivo, 336 h, time 14 day
# [42] = Cytotoxicity against African green monkey Vero cells incubated for 24 hrs by MTT assay; assay type: toxicity, cell-based; details: chlorocebus sabaeus
# [43] = Hemolytic activity in human red blood cells assessed as hemoglobin release at 250 to 15.6 uM incubated for 60 mins by spectrophotometry; assay type: toxicity, cell-based, Erythrocyte; details: dose 250-15.6 µM, read-out: Activity
# Plasmodium berghei [44] = experiment: Antimalarial activity against Plasmodium berghei ANKA infected in Albino Swiss mouse assessed as reduction in parasitemia at 30 mg/kg, po administered for 4 consecutive days measured after day 5 relative to control; assay type: functional; set-up: scale not given: the % may be the effect or the level left; details: time 5 day
# [45] = Selectivity index, ratio of CC50 for human HepG2 cells to IC50 for chloroquine-resistant Plasmodium falciparum W2 infected in human erythrocytes; assay type: toxicity, cell-based; details: read-out: Ratio CC50/IC50
# [46] = Acute toxicity in Albino Swiss mouse assessed as congestion of hepatic portal vein in liver at 300 mg/kg, po administered as single dose measured after 14 days by H and E staining based analysis; assay type: organism-based; details: in vivo, 336 h, time 14 day
# [47] = Acute toxicity in Albino Swiss mouse assessed as change in urination volume at 300 mg/kg, po administered as single dose measured after 14 days; assay type: organism-based; details: in vivo, 336 h, time 14 day
# [48] = Acute toxicity in Albino Swiss mouse assessed as signs of cyanosis at 300 mg/kg, po administered as single dose measured after 14 days; assay type: organism-based; details: in vivo, 336 h, time 14 day
smiles,measurement,setting,value
O=C1C=C(NCCn2cc(C3(O)CCCCC3)nn2)C(=O)c2ccccc21,Activity,[1],Non-Toxic
same,Activity,[2],Toxic
same,survival at 336 h,[3],100%
same,Activity,Plasmodium falciparum [4],Active
same,Activity,[5],Toxic
same,Activity,[6],Non-Toxic
same,Activity,[7],Non-Toxic
same,logP,[8],2.55
same,Activity,[9],Non-Toxic
same,Activity,[10],Toxic
same,Activity,[11],Toxic
same,Activity,[12],Non-Toxic
same,Activity,[13],Toxic
same,Activity,[14],Toxic
same,Activity,[15],Non-Toxic
same,Activity,[16],Non-Toxic
same,Activity,[17],Toxic
same,Activity,[18],Non-Toxic
same,Activity,[19],Toxic
same,CC50,HepG2,441 µM
same,Activity,[20],Non-Toxic
same,"hemolysis at 1 h, up to 1000 µM",[21],> 40%
same,Activity,Plasmodium falciparum [22],Active
same,Activity,[23],Non-Toxic
same,Activity,[24],Non-Toxic
same,Activity,[25],Non-Toxic
same,Activity,[26],Toxic
same,Activity,Plasmodium berghei [27],35%
same,Activity,[28],Toxic
same,Activity,[29],Non-Toxic
same,Activity,[30],Toxic
same,Activity,Plasmodium falciparum [31],Active
same,Activity,[32],Toxic
same,Activity,Plasmodium falciparum [33],Active
same,selectivity ratio,[34],495
same,Activity,[35],Toxic
same,Activity,[36],Toxic
same,Activity,[37],Non-Toxic
same,Survival,Plasmodium berghei [38],38.5 days
same,IC50,Plasmodium falciparum [39],2.7 µM
same,Activity,[40],Non-Toxic
same,Activity,[41],Non-Toxic
same,CC50 at 24 h,[42],1340 µM
same,hemolysis at 1 h,[43],< 40%
same,Activity,Plasmodium berghei [44],38.5%
same,selectivity ratio,[45],163
same,Activity,[46],Toxic
same,Activity,[47],Non-Toxic
same,Activity,[48],Non-Toxic
